Results published in the NIST ThermoML archive (doi:10.1021/je100610v).

Assay: xn = mol fraction of the nth substance listed
Conditions: 101 kPa, Liquid; for speed of sound: Pulse-echo method

ClCCCCCCCl [1,6-dichlorohexane] + CCCCCCC
Conditions	mass density [kg/m3]	speed of sound [m/s]
292.49 K, x1 = 0.3004	–	1199.1
292.56 K, x1 = 0.6998	–	1276.9
292.79 K, x1 = 0.4999	–	1235
292.8 K, x1 = 0.8001	–	1297
292.8 K, x1 = 0.8957	–	1316.3
292.81 K, x1 = 0.1999	–	1181.6
292.81 K, x1 = 0.6004	–	1255
292.91 K, x1 = 0.4	–	1215.3
292.92 K, x1 = 0.1014	–	1167.6
293.01 K, x1 = 1	–	1337.8
293.15 K, x1 = 0.0998	722.22	–
293.15 K, x1 = 0.1999	760.97	–
293.15 K, x1 = 0.2998	799.74	–
293.15 K, x1 = 0.4001	838.66	–
293.15 K, x1 = 0.5001	877.38	–
293.15 K, x1 = 0.6002	916.12	–
293.15 K, x1 = 0.7	954.46	–
293.15 K, x1 = 0.8002	992.78	–
293.15 K, x1 = 0.9001	1030.7	–
293.15 K, x1 = 1	1068.33	–
298.15 K, x1 = 0.0998	717.96	–
298.15 K, x1 = 0.1999	756.72	–
298.15 K, x1 = 0.2998	795.42	–
298.15 K, x1 = 0.4001	834.33	–
298.15 K, x1 = 0.5001	873.04	–
298.15 K, x1 = 0.6002	911.75	–
298.15 K, x1 = 0.7	950.12	–
298.15 K, x1 = 0.8002	988.4	–
298.15 K, x1 = 0.9001	1026.11	–
298.15 K, x1 = 1	1063.61	–
298.16 K, x1 = 0.6998	–	1256.2
298.16 K, x1 = 0.8957	–	1297.1
298.17 K, x1 = 0.3004	–	1176.1
298.17 K, x1 = 0.4999	–	1214.5
298.18 K, x1 = 1	–	1319.7
298.2 K, x1 = 0.4	–	1195
298.2 K, x1 = 0.8001	–	1277.5
298.21 K, x1 = 0.1014	–	1145.5
298.21 K, x1 = 0.1999	–	1159.4
298.21 K, x1 = 0.6004	–	1235.2
303.14 K, x1 = 0.4999	–	1195.5
303.14 K, x1 = 0.6998	–	1237.9
303.14 K, x1 = 0.8957	–	1279.5
303.15 K, x1 = 0.0998	713.61	–
303.15 K, x1 = 0.1999	752.3	–
303.15 K, x1 = 0.2998	791	–
303.15 K, x1 = 0.3004	–	1156.1
303.15 K, x1 = 0.4001	830	–
303.15 K, x1 = 0.5001	868.59	–
303.15 K, x1 = 0.6002	907.23	–
303.15 K, x1 = 0.7	945.63	–
303.15 K, x1 = 0.8002	983.71	–
303.15 K, x1 = 0.9001	1021.49	–
303.15 K, x1 = 1	1058.87	1302.4
303.19 K, x1 = 0.4	–	1175.5
303.19 K, x1 = 0.8001	–	1259.6
303.2 K, x1 = 0.1014	–	1124.7
303.2 K, x1 = 0.1999	–	1138.9
303.2 K, x1 = 0.6004	–	1216.8
308.12 K, x1 = 0.6998	–	1219.8
308.12 K, x1 = 0.8957	–	1261.9
308.13 K, x1 = 0.3004	–	1136.2
308.13 K, x1 = 0.4999	–	1176.5
308.14 K, x1 = 1	–	1285
308.15 K, x1 = 0.0998	709.34	–
308.15 K, x1 = 0.1999	748.07	–
308.15 K, x1 = 0.2998	786.58	–
308.15 K, x1 = 0.4001	825.61	–
308.15 K, x1 = 0.5001	864.37	–
308.15 K, x1 = 0.6002	902.95	–
308.15 K, x1 = 0.7	941.1	–
308.15 K, x1 = 0.8002	979.09	–
308.15 K, x1 = 0.9001	1016.82	–
308.15 K, x1 = 1	1054.14	–
308.17 K, x1 = 0.4	–	1156.1
308.18 K, x1 = 0.1014	–	1104
308.18 K, x1 = 0.6004	–	1198.3
308.18 K, x1 = 0.8001	–	1241.7
308.19 K, x1 = 0.1999	–	1118.6
313.15 K, x1 = 0.0998	704.96	–
313.15 K, x1 = 0.1999	743.68	–
313.15 K, x1 = 0.2998	782.17	–
313.15 K, x1 = 0.4001	821.26	–
313.15 K, x1 = 0.5001	859.93	–
313.15 K, x1 = 0.6002	898.61	–
313.15 K, x1 = 0.7	936.7	–
313.15 K, x1 = 0.8002	974.58	–
313.15 K, x1 = 0.9001	1012.12	–
313.15 K, x1 = 1	1049.39	–
313.21 K, x1 = 0.3004	–	1116.2
313.21 K, x1 = 0.6998	–	1201.4
313.21 K, x1 = 0.8957	–	1244
313.22 K, x1 = 0.4999	–	1157.3
313.23 K, x1 = 1	–	1267.4
313.25 K, x1 = 0.1014	–	1082.9
313.26 K, x1 = 0.4	–	1136.5
313.26 K, x1 = 0.8001	–	1223.6
313.28 K, x1 = 0.1999	–	1098
313.28 K, x1 = 0.6004	–	1179.5
